Assay results from patent US20230013823A1, “INHIBITORS OF HUMAN IMMUNODEFICIENCY VIRUS REPLICATION” (VIV HEALTHCARE UK (No. 5) LIMITED, priority 2019, published 2023).

What was measured:
[1] = system: recombinant NL4-3 virus (Renilla luciferase in nef); test: HIV cell culture assay (antiviral activity, luciferase readout in MT-2 cells); type: cell-based; details: Renilla, NL43
Experimental: HIV cell culture assay—MT=2 cells, 293T cells and the proviral DNA clone of NL4-3 virus were obtained from the NIH AIDS Research and Reference Reagent Program. MT=2 cells were propagated in RPMI 1640 media supplemented with 10% heat inactivated fetal bovine serum (FBS), […] penicillin G and up to 100 units/mL streptomycin. The 293T cells were propagated in DMEM media supplemented with 10% heat inactivated FBS, […] penicillin G and […] streptomycin. A recombinant NL4-3 proviral clone, in which a section of the nef gene was replaced with the Renilla luciferase gene, was used to make the reference virus used in these studies. The recombinant virus was prepared through transfection of the recombinant NL4-3 proviral clone into 293T cells using Transit-293 Transfection Reagent from Mirus Bio LLC (Madison, Wis.). Supernatent was harvested after 2-3 days and the amount of virus present was titered in MT=2 cells using luciferase enzyme activity as a marker by measuring luciferase enzyme activity. Luciferase was quantitated using the EnduRen Live Cell Substrate from Promega (Madison, Wis.). Antiviral activities of compounds toward the recombinant virus were quantified by measuring luciferase activity in MT=2 cells infected for 4-5 days with the recombinant virus in the presence of serial dilutions of the compound.
The 50% effective concentration (EC50) was calculated by using the exponential form of the median effect equation where (Fa)=1/[1+(ED50/drug conc.)m] (Johnson V A, Byington R T. Infectivity Assay. In Techniques in HIV Research. ed. Aldovini A, Walker B D. 71-76. New York: Stockton Press. 1990). The 50% inhibitory concentration (EC50) was calculated by using the exponential form of the median effect equation where percent inhibition=1/[1+(EC50/drug concentration)m], where m is a parameter that reflects the slope of the concentration-response curve.

[2] = Compound cytotoxicity, XTT-based colorimetric assay; type: cell-based; details: human; uninfected MT2 cells, day 4, XTT
Experimental: Compound cytotoxicity and the corresponding CC50 values were determined using the same protocol as described in the antiviral assay except that uninfected cells were used. Cytotoxicity was assessed on day 4 in uninfected MT2 cells by using an XTT (2,3-bis[2-Methoxy-4-nitro-5-sulfophenyl]-2H-tetrazolium-5-carboxyanilide inner salt)-based colorimetric assay (Sigma-Aldrich, St Louis, Mo.).

Row | SMILES | EC50 [1] | CC50 at 4 days [2]
1 | Cn1nc(NS(C)(=O)=O)c2c(Cl)ccc(-n3c([C@H](Cc4cc(F)cc(F)c4)NC(=O)Cn4nc(C(F)F)c5c4C(F)(F)[C@@H]4C[C@H]54)nc4cc(-c5ccnc(C(F)(F)F)n5)ccc4c3=O)c21 (atropisomer, axis not shown; (P)) [Example 27, N—((S)-1-((3P)-3-(4-chloro-1-methyl-3-(methylsulfonamido)-1H-indazol-7-yl)-4-oxo-7-(2-(trifluoromethyl)pyrimidin-4-yl)-3,4-dihydroquinazolin-2-yl)-2-(3,5-difluorophenyl)ethyl)-2-((3bS,4aR)-3-(difluoromethyl)-5,5-difluoro-3b,4,4a,5-tetrahydro-1H-cyclopropa[3,4]cyclopenta[1,2-c]pyrazol-1-yl)acetamide] | 0.066 nM | > 100 nM
2 | Cn1nc(NS(C)(=O)=O)c2c(Cl)ccc(-n3c([C@H](Cc4cc(F)cc(F)c4)NC(=O)Cn4nc(C(F)F)c5c4C(F)(F)[C@@H]4C[C@H]54)nc4cc(-c5cccc(C(C)(F)F)n5)ccc4c3=O)c21 (atropisomer, axis not shown; (P)) [Example 28, N—((S)-1-((3P)-3-(4-chloro-1-methyl-3-(methylsulfonamido)-1H-indazol-7-yl)-7-(6-(1,1-difluoroethyl)pyridin-2-yl)-4-oxo-3,4-dihydroquinazolin-2-yl)-2-(3,5-difluorophenyl)ethyl)-2-((3bS,4aR)-3-(difluoromethyl)-5,5-difluoro-3b,4,4a,5-tetrahydro-1H-cyclopropa[3,4]cyclopenta[1,2-c]pyrazol-1-yl)acetamide] | 0.12 nM | > 100 nM
3 | Cn1nc(NS(C)(=O)=O)c2c(Cl)ccc(-n3c([C@H](Cc4cc(F)cc(F)c4)NC(=O)Cn4nc(C(F)F)c5c4C(F)(F)[C@@H]4C[C@H]54)nc4cc(-c5ccn(CC(C)(C)C)n5)ccc4c3=O)c21 (atropisomer, axis not shown; (P)) [Example 29, N—((S)-1-((3P)-3-(4-chloro-1-methyl-3-(methylsulfonamido)-1H-indazol-7-yl)-7-(1-neopentyl-1H-pyrazol-3-yl)-4-oxo-3,4-dihydroquinazolin-2-yl)-2-(3,5-difluorophenyl)ethyl)-2-((3bS,4aR)-3-(difluoromethyl)-5,5-difluoro-3b,4,4a,5-tetrahydro-1H-cyclopropa[3,4]cyclopenta[1,2-c]pyrazol-1-yl)acetamide] | 0.21 nM | > 500 nM
4 | Cn1nc(NS(C)(=O)=O)c2c(Cl)ccc(-n3c([C@H](Cc4cc(F)cc(F)c4)NC(=O)Cn4nc(C(F)F)c5c4C(F)(F)[C@@H]4C[C@H]54)nc4cc(-c5ccc(F)c(C(F)(F)F)n5)ccc4c3=O)c21 (atropisomer, axis not shown; (P)) [Example 30, N—((S)-1-((3P)-3-(4-chloro-1-methyl-3-(methylsulfonamido)-1H-indazol-7-yl)-7-(5-fluoro-6-(trifluoromethyl)pyridin-2-yl)-4-oxo-3,4-dihydroquinazolin-2-yl)-2-(3,5-difluorophenyl)ethyl)-2-((3bS,4aR)-3-(difluoromethyl)-5,5-difluoro-3b,4,4a,5-tetrahydro-1H-cyclopropa[3,4]cyclopenta[1,2-c]pyrazol-1-yl)acetamide] | 0.22 nM | > 500 nM
5 | Cn1nc(NS(C)(=O)=O)c2c(Cl)ccc(-n3c([C@H](Cc4cc(F)cc(F)c4)NC(=O)Cn4nc(C(F)F)c5c4C(F)(F)[C@H]4C[C@@H]54)nc4cc(-c5ccn(CC6CC6)n5)ccc4c3=O)c21 (atropisomer, axis not shown; (P)) [Example 31, N—((S)-1-((3P)-3-(4-chloro-1-methyl-3-(methylsulfonamido)-1H-indazol-7-yl)-7-(1-(cyclopropylmethyl)-1H-pyrazol-3-yl)-4-oxo-3,4-dihydroquinazolin-2-yl)-2-(3,5-difluorophenyl)ethyl)-2-((3bS,4aR)-3-(difluoromethyl)-5,5-difluoro-3b,4,4a,5-tetrahydro-1H-cyclopropa[3,4]cyclopenta[1,2-c]pyrazol-1-yl)acetamide] | 0.11 nM | > 500 nM
